Like-named read-outs stand apart in the source and are kept apart here. Values belong to the compound of their own block, whether it stands above or below them.
Key:
[1] = parameters: species or system rats; conditions: rat, in vivo
Text: Leucine was used as the ligand and zinc as the metal. Composition A is therefore a mixture, or at best a complex consisting of one mole of leucine (mole weight 131.17) and one more of zinc chloride. […] Composition B consisted of two moles of leucine admixed with one mole of zinc chloride to form a mixture. […] Composition A contained leucine equivalent to 10 microliters of 0.76M. leucine and was adjusted to pH 9 with 20 microliters of 0.05 N NaOH. Composition B contained leucine equivalent to 20 microliters of 0.76M. leucine containing 20 microliters distilled water in lieu of pH adjustment. The pH of this solution was about 3. Composition C contained the same ingredients as Composition B except in chelated form and the pH was adjusted to 9 with 20 microliters of 0.13M Na2 CO3. The procedure of Example lI was fo lowed using three rats in each group. Upon sacrificing, blood was drawn and certain tissues excised to determine the amount of radioactive zinc which had migrated to the blood and tissues two hours post injection.

[2] = stability constant of amino acid chelate; format: physicochemical
Text: The determination of stability constants of amino acid chelates is well documented in U.S. Pat. No. 4,167,564 and the means by which amino acid chelates may be formulated to provide optimal stability constants within the required ranges are disclosed in U.S. Pat. Nos. 4,176,564 and 4,172,072.

[3] = radioactive zinc in male sex tissues after intravenous dosage (Example II); conditions: rats, intravenous 0.06 mg zinc, 24 hours post treatment, group average
Method: Three groups of rats, six in each group, weighing 250 gms±10 gms. were given an intravenous dosage, of 0.06 mg zinc containing 10 microcuries of radioactive zinc.
Each rat was sacrificed 24 hours post treatment and the testes, epididymis, and seminal visicle of each were exposed, excised and a determination was made of the amount of radioactive zinc in each.

[4] = radioactive zinc in tissues after injection into the jugular vein (Example IV); format: in vivo; conditions: rats, two hours post injection, group mean
Method: The method of Example III was again utilized except that the manganese was replaced by zinc. […] The same dosage as in Example III was administered. Only six rats were utilized for this experiment, three in each group, and they were sacrificed two hours post injection into the jugular vein. Six tissues, i.e. brain, skeletal muscle, liver, hypothalamus, pituitary and uterus were analyzed for radioactive zinc with the following mean results for each group reported in terms of cc/min/mg of tissue.

[5] = female rats, intravenous 0.06 mg Ca, after two hours
Method: Six female rats, weighing 250 gms.±10 gms., were divided into two groups. All rats were anethetized with 0.15 mls sodium phenobarbital USP. […] To the other three, the same amount of calcium was administered in the form a calcium chloride.
After two hours, all of he rats were sacrificed and the hypothalamus was removed and read for radioactivity.

radioactive zinc in Blood [1]: 1.64 cc/min/mg
radioactive zinc in Heart [1]: 6.32 cc/min/mg
radioactive zinc in Kidney [1]: 8.55 cc/min/mg
radioactive zinc in Liver [1]: 8.65 cc/min/mg
radioactive zinc in Muscle [1]: 3.88 cc/min/mg
radioactive zinc, Total of blood and tissues [1]: 31.45 cc/min/mg
Compound: CC(C)C[C@H](N)C(=O)[O-].CC(C)C[C@H](N)C(=O)[O-].[Zn+2] [Comp. C, zinc-leucine amino acid chelate]

stability constant [2]: 10^7
Compound: NCC(=O)[O-].NCC(=O)[O-].[Zn+2] [GROUP II, zinc-glycine chelate]

Compound: [Cl-].[Cl-].[Zn+2] [Zinc Chloride, zinc chloride]
radioactive zinc in Epididymis [3]: Negligible
radioactive zinc in Seminal Vesicle [3]: Negligible
radioactive zinc in Testes [3]: Negligible
radioactive zinc in Brain [4]: 5.1 cc/min/mg
radioactive zinc in Hypothalamus [4]: 3.0 cc/min/mg
radioactive zinc in Liver [4]: 94.2 cc/min/mg
radioactive zinc in Pituitary [4]: 17.0 cc/min/mg
radioactive zinc in Skeletal Muscle [4]: 5.2 cc/min/mg
radioactive zinc in Uterus [4]: 14.0 cc/min/mg

Compound: [Ca+2].[Cl-].[Cl-] [inorganic calcium, calcium chloride]
radioactivity in hypothalamus, mean corrected counts per minute per milligram of tissue [5]: 67.1±8.4 cc/min/mg

Compound: zinc-arginine chelate [GROUP I]
stability constant [2]: 10^7

— patent publication US4863898A, “Amino acid chelated compositions for delivery to specific biological tissue sites” (priority 1986, dated 1989)
